The target in assay [1] is urokinase (Homo sapiens, UniProt P00749). As to the kind of experiment: Amidolytic activity of urokinase, substrate S-2444. The note with it: Ki calculated from IC50 by Cheng-Prusoff; triplicate; n.i. = no effect at maximum concentration 20 mM; read-out: Ki ± SD Urokinase S-2444. The class given is biochemical. As to the method: Determination of amidolytic activity was performed as previously described (Okada et al. [1988]). The detailed description of the method is given below. The buffer and the enzyme solution included: • tris buffer—0.6 ml (pH 8.8),
enzyme: urokinase (50 U/ml),
synthetic substrate: S-2444 (0.1 ml, 3 mM); • (b) tris buffer—0.5 ml (pH 8.4),
(§1) Buffer and 0.1 ml of enzyme solution was added to 0.2 ml of examined compound dissolved in 0.15 M NaCl (1–17) (as control 0.15 M NaCl). The mixture was incubated for 3 min at 37 °C, then the synthetic substrate was added. After 20 min of incubation, the reaction was stopped by adding 0.1 ml of 50 % acetic acid, and the absorbance of the released p-nitroaniline was measured at 405 nm (Spekol 1300, AnalyticJena). Every value represents the average of the triplicate determination. IC50 value was considered as the concentration of the inhibitor, which decreased the absorbance at 405 nm by 50 %, compared with the absorbance measured under the same conditions without the inhibitor. Ki was calculated from IC50 based on Cheng–Prusoff equation (Cheng and Prusoff [1973]).

Assay [2] addresses T1, plasmin (Homo sapiens, UniProt P00747).
T1 construct: converts the pro-enzyme plasminogen into its active form plasmin; purchased Chromogenix (Milano, Italy)
As to the kind of experiment: Amidolytic activity of plasmin, substrate S-2251. In kind it is biochemical. The note with it: Ki calculated from IC50 by Cheng-Prusoff; triplicate; read-out: Ki ± SD Plasmin S-2251. As to the method: (§2) Determination of amidolytic activity was performed as previously described (Okada et al. [1988]). The detailed description of the method is given below. The buffer and the enzyme solution included: • tris buffer—0.6 ml (pH 8.8), […]
as §1, with “synthetic substrate: S-2238 (0.2 ml, 0.75 mM); • (c) tris buffer—0.5 ml (pH 7.4), enzyme: plasmin (0.4 U/ml), synthetic substrate: S-2251 (0.2 ml, 3 mM); • (d) […] buffer—0.5 ml (pH 7.5), Buffer” for “Buffer”

Assay [3] concerns the target thrombin (Bos taurus, UniProt P00735). As to the kind of experiment: Amidolytic activity of thrombin, substrate S-2238. In kind it is biochemical. The note with it: Ki calculated from IC50 by Cheng-Prusoff, n.i. = no effect at maximum concentration 20 mM, read-out: Ki ± SD Thrombin. The protocol:
as §2
as §1, with “synthetic substrate: S-2444 (0.1 ml, 3 mM); • (b) tris buffer—0.5 ml (pH 8.4), enzyme: thrombin (1 U/ml), synthetic substrate: S-2238 (0.2 ml, 0.75 mM); • (c) tris buffer—0.5 ml (pH 7.4), Buffer” for “Buffer”

The target in assay [4] is T1, plasmin. The assay is described as follows: SPRI, immobilised inhibitor interacting with plasmin. The class given is binding. The note with it: plasmin 1 ng/ml. The source says: Gold chips were manufactured as described in previous papers (Gorodkiewicz [2009]; Gorodkiewicz and Regulska [2010]; Gorodkiewicz et al. [2011]). The gold surface of the chip was covered with photopolymer and hydrophobic paint. 9 × 12 free gold surfaces were obtained. Using this chip, nine different solutions can be simultaneously measured without mixing the tested solutions. Twelve single SPRI measurements can be performed from one solution.
Chips were rinsed with ethanol and water and dried under a stream of nitrogen. They were then immersed in 20 mM cysteamine ethanolic solutions for at least 2 h. The chips were then rinsed with ethanol and water and dried under a stream of nitrogen.
Among the synthesised compounds, four were selected for the examination of the interaction between the enzyme and the inhibitor. They were acids of peptides 10, 12, 13 and 14. Acids can be bound to a gold surface via cysteamine. […]
SPRI measurements with an application of an enzyme array were performed as described in previous papers (Gorodkiewicz [2009]; Gorodkiewicz and Regulska [2010]; Gorodkiewicz et al. [2011]). Briefly, the measurements were performed at a fixed angle of incident light and the reflectivity was simultaneously measured across an entire chip surface. […] The signal was measured twice on the basis of registered images, after immobilisation of enzymes and then after interaction inhibitors. […]

Assay [5] concerns MDA-MB-231 cells. The conditions noted are these: 24 h.
Assay [6] has as its system DLD cells. The note with it: 24 h.
In assay [7] the target is T1, plasmin. The note with it: ref Lynas et al. [2001]; cited from earlier work.

The source of these data is paper PMC3726930, “Synthesis and Biological Activity of N-Sulfonyltripeptides with C-Terminal Arginine as Potential Serine Proteases Inhibitors” (International Journal of Peptide Research and Therapeutics, 2012).

Where two headings read alike, the source gives them in different places. Where a SMILES comes first, the peptide text is derived from it. [ ]: non-standard residue; d: D form. The star is where a group is joined. Ms = CS(=O)(=O)*

T1 sequence (P00747 581-810 limits assumed): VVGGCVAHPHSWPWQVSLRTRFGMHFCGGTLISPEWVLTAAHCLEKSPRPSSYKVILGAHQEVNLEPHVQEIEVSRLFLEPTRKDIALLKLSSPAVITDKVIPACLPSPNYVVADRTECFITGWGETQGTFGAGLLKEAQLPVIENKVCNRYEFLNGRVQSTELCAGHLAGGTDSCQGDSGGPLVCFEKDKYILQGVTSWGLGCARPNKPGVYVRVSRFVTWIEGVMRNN
T1 sequence (P00747 97-580 partner limits assumed): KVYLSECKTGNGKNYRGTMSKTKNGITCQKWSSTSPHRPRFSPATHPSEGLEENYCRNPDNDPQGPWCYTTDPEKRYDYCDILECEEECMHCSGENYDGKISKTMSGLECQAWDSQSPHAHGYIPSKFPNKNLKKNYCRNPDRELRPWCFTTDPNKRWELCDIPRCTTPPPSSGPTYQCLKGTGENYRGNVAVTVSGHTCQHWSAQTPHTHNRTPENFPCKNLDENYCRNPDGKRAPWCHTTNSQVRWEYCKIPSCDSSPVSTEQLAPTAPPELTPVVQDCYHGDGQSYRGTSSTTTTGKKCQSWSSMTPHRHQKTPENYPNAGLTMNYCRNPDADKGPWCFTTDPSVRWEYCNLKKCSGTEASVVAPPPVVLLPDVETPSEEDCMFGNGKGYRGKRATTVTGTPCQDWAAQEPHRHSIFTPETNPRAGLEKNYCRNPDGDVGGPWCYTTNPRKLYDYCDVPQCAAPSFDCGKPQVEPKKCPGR

Regarding `CS(=O)(=O)N[C@H](CO)C(=O)NCC(=O)N[C@@H](CCCNC(=N)N)C(=O)O` [Compound 12, CH3PhSO2-D-Ser-Gly-Arg-OH] (Ms-[dS]-Gly-Arg-OH; N-terminus and C-terminus assumed), the Ki is 11.2 ± 0.89 µM in assay [1], 10 ± 0.8 µM in assay [2] and more than 20000 µM in assay [3]. Besides, in assay [4] (Langmuir isotherm type curve), the “Inhibitor concentration above which the SPRI signal plateaus (plasmin)” value is “above 0.02 mM”. Moreover, the “SPRI signal for plasmin after interaction with inhibitor” value in assay [4] (inhibitor 0.002-0.2 mM) was “positive SPRI signal”. Besides, the IC50 was 620 µM in assay [5] and 230 µM in assay [6].

Consider Ac-Leu-Leu-Arg-COCHO, for which the Ki in assay [7] is 4.9 µM.
